Results reported in patent US7371413B2, “Antioxidant and anti-inflammatory activity of compounds and preparations from African nutmeg seeds” (Rutgers, The State University, priority 2003, dated 2008).

Columns and labels:
[1] = tested on: COX-2 mRNA expression in LPS-induced RAW 264.7 mouse macrophage cells; test: Inhibition of LPS-induced COX-2 mRNA expression (RT-PCR); type: cell-based; details: for inhibition of COX-2 mRNA expression (in words): within the concentration ranges assayed; for inhibition of COX-2 mRNA expression: 12 hrs
Procedure: (§1) Total RNA was isolated using Tri-reagent (Sigma, MO, USA) and 5 μg of this RNA was reverse transcribed to make cDNA using random hexamers and Superscript™ reverse transcriptase (Invitrogen, CA, USA) according to the manufacturer's instructions. The linear range of amplification of iNOS and COX-2 cDNA was determined using gene specific primers from Ambion, Inc. (TX, USA) according to the manufacturer's instructions. Briefly, the optimum amount of 18S primer and competitor for iNOS and COX-2 genes were determined. […] Finally, PCR products from each sample (10 μl) were resolved by electrophoresis in a 2% agarose gel (Fisher Biotech, NJ, USA) and stained with ethidium bromide. An image of the gel was captured after the appropriate exposure time and densitometric analysis was performed using image analysis software (Scion, NIH). For relative quantification, 18S ribosomal RNA was also amplified in same reaction as an internal control. Quantitative analysis of the expression of iNOS and COX-2 mRNA was performed by taking the ratio of the integrated density of each band to that of the 18S RNA band in the same sample.

[2] = tested on: iNOS mRNA expression in LPS-induced RAW 264.7 mouse macrophage cells; test: Inhibition of LPS-induced iNOS mRNA expression (RT-PCR); type: cell-based; details: 12 hrs
Procedure: as §1

[3] = tested on: iNOS protein expression in LPS-induced RAW 264.7 cells; test: Inhibition of LPS-induced iNOS protein expression (Western blotting); type: cell-based, mouse; details: treatment for 18 hrs, LPS 0.5 μg/mL
Description: (§2) To confirm whether the inhibition of NO production by kombo butter, kombo butter acid extract, and purified sargaquinoic acid (KB-1), sargachromenol (KB-2), and sargahydroquinoic acid (KB-3) was due to reduced enzymatic activity or protein expression of inducible nitric oxide synthase (iNOS), we investigated the effect of kombo butter and its constituents on iNOS protein expression by Western blotting. In addition to iNOS, we also studied the effect of kombo butter and its constituents on the expression of cyclooxygenase-2 (COX-2), an enzyme critical to the production of inflammatory prostaglandins and known to be activated in LPS-stimulated macrophages.
(§3) RAW 264.7 mouse macrophage cells were cultured in Dulbecco's Modified Eagle Medium (DMEM) supplemented with 15% fetal bovine serum (FBS) and an antibiotic and antimycotic mixture. Cell suspensions of 50,000 cells/well were cultured in quadruplicate in flat bottom microtiter plates for 12 hrs. […]
(§4) An equal amount of protein (40 μg) from each sample was resolved by SDS-polyacrylamide gel electrophoresis. […] Specific bands were detected using enhanced chemiluminescence's detection system (Amersham-Pharmacia Biotech, NJ, USA) and the membrane was exposed to X-ray film. […]

[4] = ABTS free radical scavenging assay (TEAC); type: biochemical; details: Trolox equivalent of a 1.0 mM solution
Procedure: For the ABTS assay, a solution of ABTS in water was prepared at a final concentration of 7 mM. The ABTS radical cation (ABTS^.+) was produced by adding solid potassium persulfate to the ABTS solution sufficient to yield a final concentration of 2.45 mM potassium persulfate in the mixture and allowing the mixture to stand in the dark at room temperature for 12-16 hours before use. The ABTS^.+ solution was diluted with methanol to an absorbance of 0.70 at 734 nm. Stock solutions of each of the potential actives under investigation were diluted with ethanol to ensure 20-80% inhibition of the radical cation upon introduction of a 10 μL aliquot of the active solution to 1 ml of diluted ABTS^.+ solution. The absorbance was measured beginning exactly 1 min after initial mixing and thereafter up to 6 min. Trolox was used as the standard, and the activity of each of the potential actives was expressed as a Trolox Equivalent Antioxidant Capacity (TEAC) value. The TEAC value represents the millimolar concentration of a Trolox solution having an equivalent antioxidant capacity to a 1.0 mM solution of the potential active under investigation.

[5] = in vitro, compared with α-tocopherol; cited from earlier work
[6] = tested on: COX-2 protein expression in LPS-induced RAW 264.7 cells; test: Inhibition of LPS-induced COX-2 protein expression (Western blotting); type: cell-based, mouse; details: treatment for 18 hrs, LPS 0.5 μg/mL
Description: as §2, §3, §4

[7] = tested on: TPA-induced mouse ear edema; details: compounds isolated from Roldana barba-johannis; compared with α-tocopherol; cited from earlier work
[8] = compared with α-tocopherol and indomethacin; cited from earlier work
[9] = DPPH free radical scavenging assay; type: biochemical; details: DPPH 1.0×10^−4 M in ethanol, half an hour, 517 nm
Procedure: Kombo butter, kombo butter acid extract, and purified sargaquinoic acid (KB-1), sargachromenol (KB-2), and sargahydroquinoic acid (KB-3) were tested for antioxidant activity by both the 2,2′-diphenylpicrylydrazyl (DPPH) and the 2,2′-azinobis-(3-ethylbenzothiazoline-6-sulfonic acid) (ABTS) free radical scavenging assays. A solution of DPPH in ethanol was prepared at a final concentration of 1.0×10^−4 M. Each of the potential actives under investigation was added to the DPPH solution at a number of different concentrations. The solutions were mixed, shaken vigorously and kept in the dark for half an hour. The absorbance of the samples was then measured at 517 nm with an HP Model 8453 spectrophotometer using a blank of ethanol without DPPH. All tests were run in triplicate and averaged. Differences among individual measurements were always less than 5% [26].

## vitamin E [reference compound]
[1]
  inhibition of COX-2 mRNA expression (in words): neither of these compounds effected any inhibition

## COc1ccc2c(c1)c(CC(=O)O)c(C)n2C(=O)c1ccc(Cl)cc1 [indomethacin, reference compound]
[1]
  inhibition of COX-2 mRNA expression (in words): neither of these compounds effected any inhibition

## CC(C)=CCC/C(=C/CC/C(C)=C/CC/C(C)=C/Cc1cc(O)cc(C)c1O)C(=O)O [Sargahydroquinoic acid, sargahydroquinoic acid]
[1]; 25 μM
  inhibition of COX-2 mRNA expression: ~12%
[1]; 50 μM
  inhibition of COX-2 mRNA expression: ~19%
[2]; 25 μM
  inhibition of iNOS mRNA expression: 31%
[2]; 50 μM
  inhibition of iNOS mRNA expression: 74%

## CC(C)=CCC/C(=C\CC/C(C)=C/CC/C(C)=C/CC1=CC(=O)C=C(C)C1=O)C(=O)O [Sargaquinoic acid, sargaquinoic acid]
[3]
  inhibition of iNOS protein expression: markedly inhibited
[4]
  TEAC: 0.15 mM
[2]; 50 μM
  inhibition of iNOS mRNA expression (in words): exhibited inhibitory activity

## CC(=CCCC(C)=CCc1cc(O)cc(C)c1O)CCC=C(C)CCC=C(C)C(=O)O [kombic acid]
[5]
  antioxidant activity with respect to lipid peroxidation: either met or exceeded that of α-tocopherol

## CC(C)=CCC/C(=C/CC/C(C)=C/CCC1(C)C=Cc2cc(O)cc(C)c2O1)C(=O)O (centres unmarked) [Sargachromenol, sargachromenol]
[1]; 50 μM
  inhibition of COX-2 mRNA expression: 16%
[6]
  inhibition of COX-2 protein expression: markedly inhibited
[7]
  anti-inflammatory activity: exceeded that of α-tocopherol
[8]
  antioxidant activity (DPPH radical scavenging): better than those of either α-tocopherol or indomethacin
[9]
  DPPH free radical scavenging IC50: 17.3 µg/mL
[4]
  TEAC: 0.75 mM
[2]; 50 μM
  inhibition of iNOS mRNA expression (in words): exhibited inhibitory activity
